Tests used:
[1] = Antiviral activity against Influenza A virus A//HK/7/87 (H3N2) expressing wild-type M2 proton channel infected in MDCK cells assessed as reduction in viral yield after 24 hrs by RT-qPCR method; assay type: functional, Influenza A virus (A/Hong Kong/7/1987(H3N2))
[2] = system: MDCK; assay: (§1) Cytotoxicity against MDCK cells assessed as reduction in cell viability after 72 hrs by MTS assay; assay type: cell-based, Canis lupus familiaris; details: dog, mdck, 72 h
[3] = Antiviral activity against Influenza A virus A//HK/7/87 (H3N2) expressing wild-type M2 proton channel infected in MDCK cells assessed as reduction in plaque formation preincubated with virus for 1 hr followed by addition to cells measured after 72 hrs by crystal violet staining based assay; assay type: functional, cell-based, Influenza A virus (A/Hong Kong/7/1987(H3N2))
[4] = as §1; assay type: cell-based, Canis lupus familiaris; details: dog, MDCK cells
[5] = molecular target: Matrix protein 2 (Influenza A virus (A/Udorn/307/1972(H3N2))) (UniProt P0DOF8); assay type: cell-based; details: Influenza A virus (A/udorn/1972(H3N2)); 100 uM
[6] = molecular target: Matrix protein 2 (Influenza A virus (A/Udorn/307/1972(H3N2))) (UniProt P0DOF8); assay type: cell-based; details: Influenza A virus (A/udorn/1972(H3N2)); 100 uM; remark: listed apart in the source
[7] = Antiviral activity against Influenza A virus (A2 Japan/305/57) H2N2 infected in MDCK cells assessed as reduction of virus-induced cytopathic effect after 4 to 5 days by MTS assay; assay type: functional, cell-based, Influenza A virus (A/Japan/305/1957(H2N2))

Chain of Matrix protein 2 (Influenza A virus (A/Udorn/307/1972(H3N2))) (P0DOF8 whole entry): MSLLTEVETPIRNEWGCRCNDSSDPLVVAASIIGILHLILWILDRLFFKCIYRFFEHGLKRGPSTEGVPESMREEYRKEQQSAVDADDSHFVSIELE

Compound | EC99 [1] | CC50 [2] | EC50 [3] | CC50 at 72 h [4] | inhibition [5] | inhibition [6] | EC50 [7]
N=C(N)N1CCC(CC2C3CC4CC(C3)CC2C4)CC1 (stereo not drawn) | > 2 µM | 3.8 µM | > 10 µM |  |  |  | 
C1CC(C2C3CC4CC(C3)CC2C4)CCN1 (stereo not drawn) | ≥ 50 µM | > 100 µM |  |  |  |  | 
C(=C1C2CC3CC(C2)CC1C3)C1CCNCC1 | > 10 µM |  | > 5 µM | 25 µM |  |  | 
NC12CC3CC(CC(C3)C1)C2 [AMANTADINE] | 0.51 µM |  | 0.14 µM |  |  |  | 
N=C(N)N1CCC(C23CC4CC(CC(C4)C2)C3)CC1 | > 2 µM | 10 µM | > 50 µM |  |  |  | 
OC1(C2CCNCC2)C2CC3CC(C2)CC1C3 (stereo not drawn) | 76 µM | > 100 µM | > 100 µM |  | 25% | 30% | 
CC(N)C12CC3CC(CC(C3)C1)C2 (stereo not drawn) [RIMANTADINE] | 1.1 µM | > 500 µM | 0.016 µM |  |  |  | 
CCN1CCC(C2C3CC4CC(C3)CC2C4)CC1 (stereo not drawn) | > 10 µM | 25 µM | > 10 µM |  |  |  | 
N=C(N)N1CCC(C=C2C3CC4CC(C3)CC2C4)CC1 | > 2 µM |  | > 5 µM | 19 µM |  |  | 
C1CCC(C23CC4CC(CC(C4)C2)C3)NC1 (stereo not drawn) | 3.5 µM | > 100 µM | 1 µM |  |  |  | 3.3 µM
CN1CCC(CC2C3CC4CC(C3)CC2C4)CC1 (stereo not drawn) | > 2 µM | 6.2 µM | > 10 µM |  |  |  | 
C1CC(C23CC4CC(CC(C4)C2)C3)CCN1 | ≥ 1.7 µM | 18 µM | 0.14 µM |  |  |  | 
C1CC(CC2C3CC4CC(C3)CC2C4)CCN1 (stereo not drawn) | > 2 µM | 15 µM | > 10 µM |  |  |  | 
OC1(CC2CCNCC2)C2CC3CC(C2)CC1C3 (stereo not drawn) | > 50 µM | > 50 µM | 10 µM |  |  |  | 

Reference: ChEMBL document CHEMBL4049445
